pIC50: −log10 of the molar value.
Experiments:
Assay type in all cases: cell-based
5-lipoxygenase [1] = target: T1, 5-lipoxygenase (Rattus norvegicus, UniProt P12527); experiment: inhibition of 5-HETE synthesis by rat glycogen elicited polymorphonuclear leukocytes; details: rat PMN; for inhibition at 10 µM: negative = potentiation of 5-HETE synthesis; for pIC50: read-out: IC50 (inhibition of 5-LO, as 5-HETE)
T1 construct: Peritoneal PMN are obtained from female Wistar rats (150-250 g); endogenous in cells; host or cells: rat glycogen-elicited peritoneal polymorphonuclear leukocytes, intact
T1 sequence (P12527 1-673): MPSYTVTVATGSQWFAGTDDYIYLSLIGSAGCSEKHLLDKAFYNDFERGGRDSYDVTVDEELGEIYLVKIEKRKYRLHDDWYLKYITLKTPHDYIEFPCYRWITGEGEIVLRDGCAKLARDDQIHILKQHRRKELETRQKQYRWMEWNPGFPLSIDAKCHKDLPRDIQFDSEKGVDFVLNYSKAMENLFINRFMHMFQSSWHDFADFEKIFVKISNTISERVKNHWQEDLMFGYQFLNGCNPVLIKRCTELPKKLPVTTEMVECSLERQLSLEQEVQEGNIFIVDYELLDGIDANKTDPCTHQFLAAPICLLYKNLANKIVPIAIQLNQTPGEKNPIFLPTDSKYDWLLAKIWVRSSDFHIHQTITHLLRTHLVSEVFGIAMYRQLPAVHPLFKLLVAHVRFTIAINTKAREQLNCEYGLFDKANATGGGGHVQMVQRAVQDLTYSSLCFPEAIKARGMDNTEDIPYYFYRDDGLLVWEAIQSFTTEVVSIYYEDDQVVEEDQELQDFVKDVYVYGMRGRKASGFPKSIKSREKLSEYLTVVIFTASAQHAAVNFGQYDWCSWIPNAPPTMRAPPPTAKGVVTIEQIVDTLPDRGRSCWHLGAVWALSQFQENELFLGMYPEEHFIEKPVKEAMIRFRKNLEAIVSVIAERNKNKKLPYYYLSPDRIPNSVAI
Protocol: The assay of this Example measures the ability of the compounds of the invention to inhibit the synthesis of 5-HETE by rat glycogen elicited polymorphonuclear leukocytes.
(§1) Peritoneal PMN are obtained from female Wistar rats (150-250 g) that received an i.p. injection of 6% glycogen (10 ml). After 24 hours, rats are killed by CO2 asphysiation and peritoneal cells are harvested by peritoneal lavage using Ca^++ and MG^++ free Hanks' balanced salt solution (HBSS). The peritoneal exudate is centrifuged at 400 g for 10 minutes. After centrifugation, the lavaged fluid is removed and the cell pellet is resuspended in HBSS containing Ca^++ and MG^++ and 10 mM L-cysteine at a concentration of 2×10^7 cells/ml. To 1 ml portions of cell suspension, test drugs or vehicle are added and incubated at 37° C. for 10 minutes. Following this preincubation, the calcium ionophore (10 μM), a23187, is added together with 0.5 μM [14 C] arachidonic acid and further incubated for 10 minutes. The reaction is stopped by the addition of ice cold water (3 ml) and acidifying to pH 3.5. Lipoxygenase products are then extracted twice into diethyl ether. The pooled ether extracts are evaporated to dryness under nitrogen and the residue is redissolved in a small volume of methanol and spotted on aluminum backed pre-coated thin layer chromatographic plates. The samples are then cochromatographed with authentic reference 5-HETE in the solvent system - hexane: ether: acetic acid (50:50:3). After chromatography, the areas associated with 5-HETE standard are identified by autoradiography, cut out and quantitated by liquid scintillation.

cyclooxygenase = experiment: inhibition of synthesis of cyclooxygenase products TxB2 and PGE2 (rat polymorphonuclear leukocytes); details: rat PMN; for % Inhibition of CO (as PGE2): negative = potentiation of PGE2 synthesis; for pIC50: read-out: IC50 (inhibition of CO, as PGE2)
Protocol: as §1
However, in order to determine cyclooxygenase activity, the samples are cochromatographed with authentic reference TxB2 and PGE2 in the solvent system ethyl acetate: formic acid (80:1) and the upper phase of ethyl acetate: isooctane: acetic acid: water (110:50:20:100). After chromatography, the areas associated with the TxB2 and PGE2 standards are identified by autoradiography, cut out and quantitated by liquid scintillation techniques.

5-lipoxygenase [2] = target: T2, 5-lipoxygenase (Homo sapiens, UniProt P09917); experiment: inhibition of 5-lipoxygenase in human whole blood (LTB4); details: human whole blood
T2 construct: Blood is obtained in 50-100 ml quantities from male donors; endogenous in cells; host or cells: human whole blood (leukocytes) from male donors
T2 sequence (P09917 1-674): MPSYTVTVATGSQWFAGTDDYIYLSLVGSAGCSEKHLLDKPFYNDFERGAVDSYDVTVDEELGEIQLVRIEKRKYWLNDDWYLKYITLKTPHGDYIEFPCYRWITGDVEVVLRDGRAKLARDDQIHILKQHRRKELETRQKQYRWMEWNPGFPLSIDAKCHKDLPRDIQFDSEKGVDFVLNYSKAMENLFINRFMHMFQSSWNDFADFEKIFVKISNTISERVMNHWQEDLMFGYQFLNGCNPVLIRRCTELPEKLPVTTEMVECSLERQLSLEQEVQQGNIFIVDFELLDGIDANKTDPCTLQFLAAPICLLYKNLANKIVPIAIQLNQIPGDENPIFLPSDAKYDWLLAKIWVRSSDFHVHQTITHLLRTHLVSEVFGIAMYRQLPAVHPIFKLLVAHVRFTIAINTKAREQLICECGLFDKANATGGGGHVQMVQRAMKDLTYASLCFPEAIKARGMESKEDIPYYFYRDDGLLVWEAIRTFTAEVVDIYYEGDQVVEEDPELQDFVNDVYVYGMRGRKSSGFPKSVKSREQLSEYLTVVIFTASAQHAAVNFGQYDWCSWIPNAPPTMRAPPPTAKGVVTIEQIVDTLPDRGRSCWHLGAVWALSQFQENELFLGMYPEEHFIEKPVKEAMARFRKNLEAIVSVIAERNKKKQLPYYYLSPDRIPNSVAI
Protocol: The assay of this Example measures the ability of the compounds tested to inhibit 5-lipxygenase in human whole blood.
Blood is obtained in 50-100 ml quantities from male donors. White blood cell counts and differentials are made. Two ml of blood are placed in a 15 ml polypropylene test tube. Compounds are solubilized in dimethylsulfoxide and diluted 1:10 in 10% bovine serum albumin in phosphate buffered saline, pH 7.4 resulting in a final dimethylsulfoxide concentration of 0.1% in the blood. Then, compounds are added to the blood in a shaking water bath at 37° C. for 10 minutes prior to the addition of 30 μM calcium ionophore (A23187; Sigma). After ionophore administration, whole blood samples are mixed and incubated for 20 minutes at 37° C. in a shaking water bath. Incubation is terminated by placing samples in an ice bath and immediately adding ethylene glycol-bis-(β-aminoethyl ether)-N,N,N',N'-tetraacetic acid (10 mM). Samples are mixed and centrifuged at 1200×g for 15 minutes at 4° C. Preparation of samples for evaluation by RIA or ELISA is carried out by the following protocol. Plasma is removed from sample tubes, placed in 15 ml polypropylene test tubes containing 8 ml methanol, and then vortexed to precipitate protein. Samples are stored at -70° C. overnight. The next day, samples are centrifuged at 200×g for 15 minutes at 4° C. to pellet the precipitate. Samples are dried in a Savant speed vac concentrator, reconstituted to original volume with ice cold RIA or ELISA buffer, and stored at -70° C. until assayed. The assay for eicosanoids (LTB4, TxB2, and PGE2) is performed as described by the manufacturer of the [^3 H]-RIA kit or ELISA kit (LTB4 -Amersham, TxB2 and PGE2 - Caymen Chemical).
The total eicosanoid level in 2 ml of blood is calculated and reported as ng/10^6 neutrophils. Significance is determined by a one-way analysis of variance with least significant difference (LSD) comparisons to control (p≤0.05) and IC50 's (μM) are determined by regression analysis (Finney, 1978). Drug effects are expressed as percent change form control values.
Compounds tested in vitro are solubilized in dimethylsulfoxide and diluted 1:10 in 10% bovine serum albumin in phosphate buffer saline resulting in a final dimethylsulfoxide concentration of 0.1% in the blood.

[3] = read-out: % Inhibition of 5-LO (as 5-HETE)

Row | SMILES | inhibition at 10 µM (5-lipoxygenase [1]; [3]) [%] | % Inhibition of CO (as PGE2) (cyclooxygenase; 10 μM) [%] | also measured
1 | CC(C(=O)O)c1ccc2c(Br)c(OCc3ccc4ccccc4n3)ccc2c1 (stereo not drawn) [Example 19, α-Methyl-5-bromo-6-(2-quinolinylmethoxy)-2-naphthaleneacetic acid] | 82 | -21 | –
2 | CC(C(=O)O)c1ccc2cc(OCc3ccc4ccccc4c3)ccc2c1 (stereo not drawn) [Example 6, α-Methyl-6-(2-naphthalenylmethoxy)-2-naphthaleneacetic acid] | 100 | -15 | –
3 | CC(C)(C(=O)O)c1ccc2cc(OCc3ccc4ccccc4n3)ccc2c1 [Example 22, α,α-Dimethyl-6-(2-quinolinylmethoxy)-2-naphthaleneacetic acid] | 87 | -28 | –
4 | CCCCCOc1ccc2cc(C(C)C(=O)O)ccc2c1 (stereo not drawn) [Example 12, α-Methyl-6-(pentyloxy)-2-naphthaleneacetic acid] | 48 | -13 | –
5 | C[C@H](C=O)c1ccc2cc(OCc3ccc4ccccc4n3)ccc2c1 [Example 27, (S)-α-methyl-6-(2-quinolinylmethoxy)-2-naphthaleneacetaldehyde] | 100 | -62 | –
6 | COC(=O)C(C)c1ccc2cc(OCc3ccc4ccccc4n3)ccc2c1 (stereo not drawn) [Example 28, α-Methyl-6-(2-quinolinylmethoxy)-2-naphthaleneacetic acid methyl ester] | – | – | pIC50 (5-lipoxygenase [1]): 6.37; pIC50 (cyclooxygenase): < 5.00
7 | CONC(=O)C(C)c1ccc2cc(OCc3ccc4ccccc4n3)ccc2c1 (stereo not drawn) [Example 30, N-methoxy-α-methyl-6-(2-quinolinylmethoxy)-2-naphthaleneacetamide] | 92 | -27 | inhibition at 50 µM (5-lipoxygenase [2]): 13%
8 | CC(C(=O)O)c1ccc2cc(OCC=Cc3ccccc3)ccc2c1 (stereo not drawn) [Example 20, α-Methyl-6-[(3-phenyl-2-propenyl)oxy]-2-naphthaleneacetic acid] | 89 | 14 | –
9 | Cc1ccc(S(=O)(=O)NC(=O)C(C)c2ccc3cc(OCc4ccc5ccccc5n4)ccc3c2)cc1 (stereo not drawn) [Example 25, α-Methyl-N-[(4-methylphenyl)sulfonyl]-6-(2-quinolinylmethoxy)-2-naphthaleneacetamide] | 100 | -103 | inhibition at 25 µM (5-lipoxygenase [2]; 25 μM): 45%
10 | COC(=O)[C@@H](C)c1ccc2cc(OCc3ccc4ccccc4n3)ccc2c1 [Example 29, (S)α-methyl-6-(2-quinolinylmethoxy)-2-naphthaleneacetic acid methyl ester] | 91 | -17 | inhibition at 50 µM (5-lipoxygenase [2]): 24%
11 | CC(C(=O)O)c1ccc2cc(OCc3ccc4ccc(Cl)cc4n3)ccc2c1 (stereo not drawn) [Example 18, α-Methyl-6-[(7-chloro-2-quinolinyl)-methoxy]-2-naphthaleneacetic acid] | – | – | pIC50 (5-lipoxygenase [1]): 4.94; pIC50 (cyclooxygenase): < 4.30
12 | CC(C(=O)N(C)O)c1ccc2cc(OCc3ccc4ccccc4n3)ccc2c1 (stereo not drawn) [Example 23, N-Hydroxy-α-N-dimethyl-6-(2-quinolinylmethoxy)-2-naphthaleneacetamidedihydrate] | 75 | 17 | inhibition at 5 µM (5-lipoxygenase [2]; 5 μM, read-out: % Inhibition of LTB4): 45%
13 | CC(C(=O)O)c1ccc2cc(OCc3csc(-c4ccccc4)n3)ccc2c1 (stereo not drawn) [Example 9, α-Methyl-6-[(2-phenyl-4-thiazolyl)methoxy]-2-naphthaleneacetic acid] | 86 | -11 | –
14 | CC(C(=O)O)c1ccc2cc(OCc3nc4ccccc4s3)ccc2c1 (stereo not drawn) [Example 5, α-Methyl-6-(2-benzothiazolylmethoxy)-2-naphthaleneacetic acid] | 90 | -35 | –
15 | C[C@@H](C(=O)O)c1ccc2cc(OCc3ccc4ccccc4n3)ccc2c1 [Example 8, R-(-)-α-Methyl-6-(2-quinolinylmethoxy)-2-naphthaleneacetic acid] | – | – | inhibition at 0.1 µM (5-lipoxygenase [1]; 0.1 μM, read-out: % Inhibition of 5-LO (as 5-HETE)): 33%; % Inhibition of CO (as PGE2) (cyclooxygenase; 0.1 μM): -7%
16 | O=C(O)Cc1ccc2cc(OCc3ccc4ccccc4n3)ccc2c1 [Example 21, 6-(2-Ouinolinylmethoxy)-2-naphthaleneacetic Acid] | 95 | – | pIC50 (cyclooxygenase): < 3.60
17 | C[C@H](CO)c1ccc2cc(OCc3ccc4ccccc4n3)ccc2c1 [Example 26, (S)-β-methyl-6-(2-quinolinylmethoxy)-2-naphthalene ethanol] | 97 | 5 | inhibition at 100 µM (5-lipoxygenase [2]; 100 μM): 8%
18 | CC(C)=CCOc1ccc2cc(C(C)C(=O)O)ccc2c1 (stereo not drawn) [Example 14, α-Methyl-6-(3-methyl-2-butenoxy)-2-naphthaleneacetic acid] | 81 | -15 | –

Source: US5208344A, “Naphthalenepropionic acid derivatives as anti-inflammatory/antiallergic agents” (American Home Products Corporation, priority 1991, dated 1993)
